Assay results taken from patent US8557833B2, “Aminopyrimidines useful as kinase inhibitors” (priority 2005, dated 2013).
Where two headings read alike, the source gives them in different places.

Key:
Type in all cases: biochemical
JAK-2 = JAK-2 (Homo sapiens, UniProt O60674); assay: JAK2 inhibition assay; details: 12 μM ATP, 15 μM poly(Glu)4Tyr
Aurora-1 (Aurora B) = Aurora-1 (Aurora B) (Homo sapiens, UniProt Q96GD4); assay: Aurora-1 (Aurora B) inhibition assay (radiometric)
Protocol: An assay buffer solution was prepared which consisted of 25 mM HEPES (pH 7.5), 10 mM MgCl2, 0.1% BSA and 10% glycerol. […] To 22 μL of the Aurora-B solution, in a 96-well plate, was added 2 μl of a compound stock solution in DMSO and the mixture allowed to equilibrate for 10 minutes at 25° C. The enzyme reaction was initiated by the addition of 16 μl stock [γ-^33P]-ATP solution (˜20 nCi/μL) prepared in assay buffer, to a final assay concentration of 800 μM. The reaction was stopped after 3 hours by the addition of 16 μL 500 mM phosphoric acid and the levels of ^33P incorporation into the peptide substrate were determined by the following method.
A phosphocellulose 96-well plate (Millipore, Cat no. MAPHNOB50) was pre-treated with 100 μL of a 100 mM phosphoric acid prior to the addition of the enzyme reaction mixture (40 μL). The solution was left to soak on to the phosphocellulose membrane for 30 minutes and the plate subsequently washed four times with 200 μL of a 100 mM phosphoric acid. […] Levels of non-enzyme catalyzed background radioactivity were determined by adding 16 μL of the 500 mM phosphoric acid to control wells, containing all assay components (which acts to denature the enzyme), prior to the addition of the [γ-^33P]-ATP solution. Levels of enzyme catalyzed ^33P incorporation were calculated by subtracting mean background counts from those measured at each inhibitor concentration. […] Ki values were calculated from initial rate data by non-linear regression using the Prism software package (Prism 3.0, Graphpad Software, San Diego, Calif.).

FLT-3 = molecular target: T1, FLT-3 (Homo sapiens, UniProt P36888); assay: FLT-3 inhibition assay, radiometric filter-binding
T1 sequence (P36888 27-993): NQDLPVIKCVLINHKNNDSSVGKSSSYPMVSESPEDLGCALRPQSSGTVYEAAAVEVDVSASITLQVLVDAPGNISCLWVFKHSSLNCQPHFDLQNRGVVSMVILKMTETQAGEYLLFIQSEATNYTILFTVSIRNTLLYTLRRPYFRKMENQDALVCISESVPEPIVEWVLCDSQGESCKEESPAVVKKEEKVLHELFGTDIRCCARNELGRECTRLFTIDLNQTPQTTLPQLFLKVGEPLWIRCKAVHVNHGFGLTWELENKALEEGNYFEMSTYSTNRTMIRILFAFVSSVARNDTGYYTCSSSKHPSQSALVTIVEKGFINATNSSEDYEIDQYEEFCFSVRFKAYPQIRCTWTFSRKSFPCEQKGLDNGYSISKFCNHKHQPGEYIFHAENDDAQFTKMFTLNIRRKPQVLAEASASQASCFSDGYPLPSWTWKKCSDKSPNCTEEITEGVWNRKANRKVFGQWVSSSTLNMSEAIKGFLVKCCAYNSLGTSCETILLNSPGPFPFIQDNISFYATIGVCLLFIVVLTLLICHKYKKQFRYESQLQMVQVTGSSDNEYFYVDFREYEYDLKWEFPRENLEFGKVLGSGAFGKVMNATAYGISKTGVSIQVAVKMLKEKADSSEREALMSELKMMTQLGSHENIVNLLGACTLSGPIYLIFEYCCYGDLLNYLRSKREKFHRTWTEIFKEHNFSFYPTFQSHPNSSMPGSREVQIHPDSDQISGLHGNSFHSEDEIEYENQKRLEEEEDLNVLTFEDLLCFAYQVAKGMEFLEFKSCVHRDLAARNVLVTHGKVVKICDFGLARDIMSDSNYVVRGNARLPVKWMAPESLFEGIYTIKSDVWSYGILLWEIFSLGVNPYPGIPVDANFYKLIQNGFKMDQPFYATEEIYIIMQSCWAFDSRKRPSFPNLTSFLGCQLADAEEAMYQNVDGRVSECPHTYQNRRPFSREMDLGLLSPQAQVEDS
Protocol: This assay monitors the 33P incorporation into a substrate poly(Glu, Tyr) 4:1 (pE4Y). […] Final substrate concentrations in the assay were 90 μM ATP and 0.5 mg/ml pE4Y (both from Sigma Chemicals, St Louis, Mo.). […] Reactions were carried out at room temperature.
Two assay solutions were prepared. Solution 1 contains 100 mM HEPES (pH 7.5), 10 mM MgCl2, 25 mM NaCl, 1 mg/ml pE4Y and […] (containing 0.3 mCi of [γ-33^P]ATP for each reaction). Solution 2 contains 100 mM HEPES (pH 7.5), 10 mM MgCl2, 25 mM NaCl, 2 mM DTT, 0.02% BSA and 3 nM FLT-3. The assay was run on a 96 well plate by mixing 50 μl each of Solution 1 and […] of the compounds of the present invention. The reaction was initiated with Solution 2. […] All of the reaction volume was then transferred to a filter plate and washed with 5% TCA by a Harvester 9600 from TOMTEC (Hamden, Conn.). The amount of ^33P incorporation into pE4y was analyzed by a Packard Top Count Microplate Scintillation Counter (Meriden, Conn.). The data was fitted using Prism software to get an IC50 or Ki.

[1] = 800 μM ATP, Kemptide, 25° C., read-out: Aurora B Ki
[2] = 90 μM ATP, 0.5 mg/ml pE4Y, room temperature, read-out: FLT-3 Ki

Aurora-1 (Aurora B), sequence (Q96GD4 whole entry): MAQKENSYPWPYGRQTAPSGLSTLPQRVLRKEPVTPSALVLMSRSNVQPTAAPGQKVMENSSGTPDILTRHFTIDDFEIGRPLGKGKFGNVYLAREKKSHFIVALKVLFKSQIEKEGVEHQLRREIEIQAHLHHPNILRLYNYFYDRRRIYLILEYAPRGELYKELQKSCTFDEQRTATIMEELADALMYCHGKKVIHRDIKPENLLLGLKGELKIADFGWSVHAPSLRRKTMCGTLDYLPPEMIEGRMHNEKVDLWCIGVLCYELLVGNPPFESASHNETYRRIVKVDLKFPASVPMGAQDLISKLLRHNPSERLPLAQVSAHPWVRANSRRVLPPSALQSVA
JAK-2, sequence (O60674 whole entry, species assumed): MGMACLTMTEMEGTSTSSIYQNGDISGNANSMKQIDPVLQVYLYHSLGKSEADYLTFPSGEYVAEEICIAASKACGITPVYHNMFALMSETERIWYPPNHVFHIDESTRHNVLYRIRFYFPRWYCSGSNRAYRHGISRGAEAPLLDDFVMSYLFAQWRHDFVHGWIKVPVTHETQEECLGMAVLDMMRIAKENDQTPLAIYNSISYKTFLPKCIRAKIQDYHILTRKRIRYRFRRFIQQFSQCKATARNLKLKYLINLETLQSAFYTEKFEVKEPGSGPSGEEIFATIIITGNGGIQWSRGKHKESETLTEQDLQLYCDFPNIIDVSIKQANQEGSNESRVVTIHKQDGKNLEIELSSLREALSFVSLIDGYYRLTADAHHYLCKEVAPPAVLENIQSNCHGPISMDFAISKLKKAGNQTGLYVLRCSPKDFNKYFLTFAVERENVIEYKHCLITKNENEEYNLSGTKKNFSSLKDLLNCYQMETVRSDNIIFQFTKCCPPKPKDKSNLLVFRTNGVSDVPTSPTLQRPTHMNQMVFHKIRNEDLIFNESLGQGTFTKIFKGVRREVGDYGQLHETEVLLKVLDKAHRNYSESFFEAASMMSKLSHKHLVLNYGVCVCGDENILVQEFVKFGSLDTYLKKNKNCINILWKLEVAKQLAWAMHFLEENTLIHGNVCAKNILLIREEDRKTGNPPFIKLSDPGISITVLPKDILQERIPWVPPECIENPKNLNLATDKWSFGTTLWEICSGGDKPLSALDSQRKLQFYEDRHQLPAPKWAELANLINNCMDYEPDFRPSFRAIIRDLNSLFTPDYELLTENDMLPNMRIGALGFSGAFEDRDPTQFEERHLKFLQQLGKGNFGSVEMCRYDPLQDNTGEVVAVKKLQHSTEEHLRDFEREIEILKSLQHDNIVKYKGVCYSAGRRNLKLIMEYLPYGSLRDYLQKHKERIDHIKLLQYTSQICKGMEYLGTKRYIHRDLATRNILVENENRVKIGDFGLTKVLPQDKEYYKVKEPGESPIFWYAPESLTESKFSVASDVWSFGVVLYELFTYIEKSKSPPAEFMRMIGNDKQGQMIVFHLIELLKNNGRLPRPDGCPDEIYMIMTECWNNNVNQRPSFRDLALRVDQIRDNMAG

Ki (JAK-2) [µM]	Ki (Aurora-1 (Aurora B); [1]) [µM]	Ki (FLT-3; [2]) [µM]	Ki (FLT-3) [µM]	SMILES	Ki (Aurora-1 (Aurora B)) [µM]
0.38	0.007	0.1		Cc1cc(Nc2cc(N3CCC3)nc(Sc3ccc(NC(=O)c4ccccc4Cl)cc3)n2)[nH]n1 [Compound I-1, N-{4-[4-Azetidin-1-yl-6-(5-methyl-2H-pyrazol-3-ylamino)-pyrimidin-2-ylsulfanyl]-phenyl}-2-chloro-benzamide]	
0.067	0.0065	0.18		Cc1cc(Nc2cc(N3CCC3)nc(Sc3ccc(NC(=O)c4c(F)cccc4F)cc3)n2)[nH]n1 [Compound I-2, N-{4-[4-Azetidin-1-yl-6-(5-methyl-2H-pyrazol-3-ylamino)-pyrimidin-2-ylsulfanyl]-phenyl}-2,6-Difluoro-benzamide]	
1.7	0.011		0.17	Cc1cc(Nc2cc(N3CCC3)nc(Sc3ccc(NC(=O)c4ccccc4OC(F)(F)F)cc3)n2)[nH]n1 [Compound I-8]	
0.33	0.007		0.11	Cc1cc(Nc2cc(N3CCC3)nc(Sc3ccc(NC(=O)c4c(Cl)cccc4Cl)cc3)n2)n[nH]1 [Compound I-11]	
0.046	0.019		0.54	Cc1cc(Nc2cc(N3CCC3)nc(Sc3ccc(NC(=O)c4cccc(Cl)c4)cc3)n2)n[nH]1 [Compound I-12]	
0.72	0.0045	0.17		Cc1cc(Nc2cc(N3CCC3)nc(Sc3ccc(NC(=O)c4ccccc4C(F)(F)F)cc3)n2)[nH]n1 [Compound I-14]	
0.41	0.006		0.1	O=C(Nc1ccc(Sc2nc(Nc3cc(C4CC4)[nH]n3)cc(N3CCC3)n2)cc1)c1ccccc1Cl [Compound I-17]	
0.41	0.019	0.16		Cc1cc(Nc2cc(N3CCC3)nc(Sc3ccc(NC(=O)c4ccccc4C(F)F)cc3)n2)[nH]n1 [Compound I-19]	
0.5	< 0.006		0.19	CCc1cccc(C(=O)Nc2ccc(Sc3nc(Nc4cc(C)[nH]n4)cc(N4CCC4)n3)cc2)c1Cl [Compound I-22]	

The next lines start with the compound.

SMILES	Ki (JAK-2) [µM]	Ki (Aurora-1 (Aurora B); [1]) [µM]	Ki (FLT-3; [2]) [µM]	Ki (FLT-3) [µM]	Ki (Aurora-1 (Aurora B)) [µM]
Cc1cc(Nc2cc(N3CCC3)nc(Sc3ccc(NC(=O)c4ccccc4F)cc3)n2)[nH]n1 [Compound I-3]	0.061	0.01	0.22		
Cc1cccc(C(=O)Nc2ccc(Sc3nc(Nc4cc(C)[nH]n4)cc(N4CCC4)n3)cc2)c1 [Compound I-4]	0.081			0.33	0.024
Cc1cc(Nc2cc(N3CCC3)nc(Sc3ccc(NC(=O)c4ccccc4C)cc3)n2)[nH]n1 [Compound I-5]	0.19	0.014	0.07		
COc1ccccc1C(=O)Nc1ccc(Sc2nc(Nc3cc(C)[nH]n3)cc(N3CCC3)n2)cc1 [Compound I-6]	1.1	0.026		0.12	
Cc1cc(Nc2cc(N3CCC3)nc(Sc3ccc(NC(=O)c4cccc(C(F)(F)F)c4F)cc3)n2)n[nH]1 [Compound I-13]	0.13			0.35	0.006
Cc1cc(Nc2cc(N3CCC3)nc(Sc3ccc(NC(=O)c4cccc(Cl)c4F)cc3)n2)n[nH]1 [Compound I-15]	0.046	0.0075		0.16	
Cc1cc(Nc2cc(N3CCC3)nc(Sc3ccc(NC(=O)c4cccc(C)c4Cl)cc3)n2)n[nH]1 [Compound I-20]	0.29	0.006		0.24	
Cc1cc(Nc2cc(N3CCC3)nc(Sc3ccc(NC(=O)c4cc(Cl)ccc4Cl)cc3)n2)n[nH]1 [Compound I-21]	0.6	0.0065		0.55	
